Experimental data: patent US5100879A, “Method of topically cleansing the human body” (K.K. Ueno Seiyaku Oyo Kenkyujo, priority 1987, dated 1992)
Read-outs that look alike come from different tables or passages of the source.

Legend:
HTLV-III = experiment: Anti-AIDS activity, infected cell rate of MT-4 cells infected with HTLV-III at the 6th day (Example 9); assay type: cell-based; settings: for anti-AIDS virus activity, in words: Example 9
Protocol: To MT-4 cells (30×10^4 /ml) cultured in RPMI-1640 medium containing 10% bovine serum, was inoculated HTLV-III, and the suspension was incubated at 37° C. for 1 hour to cause the adsorption of the virus. The cell:virus ratio was 500:1. The cells were then washed, and cultured with or without various doses of the test substances (same as those of Example 1) at 37° C. under 5% CO2 for 3 days, after which cell growth, viability, and percentage of infected cells were recorded. The infected cells were distinguished from the uninfected cells by an indirect immuno-fluorescence method. Thus, the cultured cells were fixed with cold methanol on a slide glass, reacted with antibody to the HTLV-III-specific antigens, and further with the secondary antibody (having a fluororescent label). The results are shown in FIGS. 9-29, wherein, .gradient., .increment. and .quadrature. show the controls without virus, and show the infection experiments with HTLV-III. The cell growth is indicated in number of cells, the viability (%) in number of viable cells ×100/number of total cells, and the infected cell rate (%) in number of fluorescent-positive cells x 100/number of total cells.
In order to examine the correlation between the anti-AIDS virus activity and the molecular structure (especially, molecular weight and S-content or number of sulfate group in this case) of various test substances including those used in Examples 1-7, the anti-AIDS activities were evaluated for the various naturally occurring polysaccharides, polysaccharides having a sulfate group, mucopolysaccharides, mucopolysaccharide sulfate, and mucopolysaccharide polysulfate. Further, similar experiments were carried out with various other sulfates which were synthetically obtained. The experimental procedures employed are identical to that in the preceding experiments. The cultured MT-4 cells were infected with HTLV-III and the inhibitory effects of various test substances on the infected cell rate (number of fluorescent cell×100/ total cell, %) were determined at the 6th day.

MT-4 cells = experiment: Cytotoxicity, MT-4 cells cultured without virus (Examples 4 and 8); assay type: cell-based, human; settings: without virus; for Viability: 0 μg/ml gives 87; for Cell number: 0 μg/ml gives 124
Source text: The cell:virus ratio was 500:1. […] The infected cells were distinguished from the uninfected cells by an indirect immuno-fluorescence method. Thus, the cultured cells were fixed with cold methanol on a slide glass, reacted with antibody to the HTLV-III-specific antigens, and further with the secondary antibody (having a fluororescent label). […] The cell growth is indicated in number of cells, the viability (%) in number of viable cells ×100/number of total cells, and the infected cell rate (%) in number of fluorescent-positive cells x 100/number of total cells.

[1] = system: reverse transcriptase (authentic sample) derived from Avian Myeloblastosis Virus; experiment: Inhibition of reverse transcriptase activity (AMV), Examples 1 and 5; assay type: biochemical; settings: FIGS. 30-33
Protocol: Test substances were assayed for inhibition against the enzyme activity of reverse transcriptase (authentic sample) derived from Avian Myeloblastosis Virus (abbrev. AMV), a kind of retrovirus. Five microliters of […] (template RNA), 4 μl of (dT)12-18 (primer DNA), and 1 μl of water were mixed with 5 μl of 0.5M Tris-HCl (pH 8.4) including 0.1% triton X-100, 5 μl of […], 5 μl of 20 […], 5 μl of water, and [^3 H]-TTP (tritium labeled thymidine triphosphate). To this mixture, test substances in solutions (final concentrations: 1, 0.1, and 0.01 μg/ml, 5 μl) or buffer solutions (control, 5 μl) at various doses were added. Then, 5 μl (one unit) of the authentic reverse transcriptase derived from AMV was added and the reaction mixture was incubated at 37° C. for 30 minutes. The reaction was stopped by addition of trichloroacetic acid, and after filtering the reaction mixture, the radioactivity of the polymerized (3H-T)n retained on the filter was measured using a liquid scintilation counter. As the test substances, sodium dextran sulfate (molecular weight: 5000), same (molecular weight: 8000), same (molecular weight: 500000), fucoidin, κ-carrageenan, λ-carrageenan, and .iota.-carrageenan were used.
The effects of the test substances on the reverse transcriptase activity of AMV were evaluated by the method described in Example 1.

mice = settings: cited from earlier work
[2] = 10 μg/ml, 6th day, control without test substance 100%
[3] = 100 μg/ml, 6th day, control without test substance 100%
[4] = 10 μg/ml, 6th day, control without test substance 100%, 8640 min
[5] = 100 μg/ml, 6th day, control without test substance 100%, 8640 min
[6] = 1 μg/ml, listed as Sodium dextran sulfate (molecular weight: 5000, S-content: 13%)
[7] = 10 μg/ml, listed as Sodium dextran sulfate (molecular weight: 5000, S-content: 13%)
[8] = 100 μg/ml, listed as Sodium dextran sulfate (molecular weight: 5000, S-content: 13%)
[9] = 1000 μg/ml, 6th day, control without test substance 100%

Molecule	Infected cell (%) (HTLV-III; [2])	Infected cell (%) (HTLV-III; [3])	anti-AIDS virus activity, in words (HTLV-III)	further results
Chitin sulfate	100	81	–	–
Alginic acid sulfate	7	4	particularly strong	–
Chitosan [reference compound]	100	100	–	–
Fucoidin	32	1	–	Viability (MT-4 cells; 1 μg/ml): 92%; Cell number (MT-4 cells; 1 μg/ml): 141 ×10^4 cells/ml; Viability (MT-4 cells; 10 μg/ml): 99%; Cell number (MT-4 cells; 10 μg/ml): 112 ×10^4 cells/ml; Viability (MT-4 cells; 100 μg/ml): 93%; Cell number (MT-4 cells; 100 μg/ml): 71 ×10^4 cells/ml
Chondroitin [reference compound]	100	100	–	–
Chondroitin polysulfate	3	1	particularly strong	reverse transcriptase inhibitory activity compared with the natural substances [1]: stronger activity
Chitosan sulfate	1	1	particularly strong	–
κ-Carrageenan	95	1	–	Viability (MT-4 cells; 1 μg/ml): 93%; Cell number (MT-4 cells; 1 μg/ml): 147 ×10^4 cells/ml; Viability (MT-4 cells; 10 μg/ml): 93%; Cell number (MT-4 cells; 10 μg/ml): 149 ×10^4 cells/ml; Viability (MT-4 cells; 100 μg/ml): 92%; Cell number (MT-4 cells; 100 μg/ml): 111 ×10^4 cells/ml
Chitin [reference compound]	100	100	–	–
Dextran sulfate [Dextran sulfate 500,000]	–	–	–	Infected cell (%) (HTLV-III; [4]): 20%; Infected cell (%) (HTLV-III; [5]): 0%
OC[C@H]1O[C@H](OC[C@H]2O[C@H](O[C@]3(CO)O[C@H](CO)[C@@H](O)[C@@H]3O)[C@H](O)[C@@H](O)[C@@H]2O)[C@H](O)[C@@H](O)[C@H]1O [raffinose, reference compound]	–	–	None	–
Dextran [Dextran 9,000, reference compound]	100	100	–	–
pectin [reference compound]	–	–	None	–
Chondroitin-6-sulfate [reference compound]	100	100	–	–
Chondroitin-6-sulfate polysulfate	2	1	particularly strong	–
.iota.-Carrageenan	100	31	–	Viability (MT-4 cells; 1 μg/ml): 94%; Cell number (MT-4 cells; 1 μg/ml): 135 ×10^4 cells/ml; Viability (MT-4 cells; 10 μg/ml): 93%; Cell number (MT-4 cells; 10 μg/ml): 128 ×10^4 cells/ml; Viability (MT-4 cells; 100 μg/ml): 80%; Cell number (MT-4 cells; 100 μg/ml): 144 ×10^4 cells/ml
methylcellulose [reference compound]	–	–	None	–
Keratan sulfate [reference compound]	100	80	–	–
sodium chondroitin sulfate	–	–	–	acute toxicity (LD50) (mice; intraperitoneally): ≥ 4,000 mg/kg; acute toxicity (LD50) (mice; orally): ≥ 7,500 mg/kg

Molecule	Infected cell (%) (HTLV-III; [2])	Infected cell (%) (HTLV-III; [3])	anti-AIDS virus activity, in words (HTLV-III)	further results
Alginic acid [reference compound]	100	100	–	–
colominic acid [reference compound]	–	–	None	–
Heparitin sulfate [reference compound]	100	90	–	–
Dextran sulfate [Dextran sulfate 5,000]	–	–	–	Infected cell (%) (HTLV-III; [4]): 18%; Infected cell (%) (HTLV-III; [5]): 0%; Viability (MT-4 cells; [6]): 90%; Cell number (MT-4 cells; [6]): 123 ×10^4 cells/ml; Viability (MT-4 cells; [7]): 92%; Cell number (MT-4 cells; [7]): 127 ×10^4 cells/ml; Viability (MT-4 cells; [8]): 93%; Cell number (MT-4 cells; [8]): 121 ×10^4 cells/ml
Chondroitin-4-sulfate [reference compound]	100	100	–	–
Chondroitin-4-sulfate polysulfate	2	1	particularly strong	–
λ-Carrageenan	3	1	particularly strong	Viability (MT-4 cells; 1 μg/ml): 89%; Cell number (MT-4 cells; 1 μg/ml): 147 ×10^4 cells/ml; Viability (MT-4 cells; 10 μg/ml): 94%; Cell number (MT-4 cells; 10 μg/ml): 203 ×10^4 cells/ml; Viability (MT-4 cells; 100 μg/ml): 94%; Cell number (MT-4 cells; 100 μg/ml): 83 ×10^4 cells/ml
Agarose [reference compound]	100	100	–	–
N-acetylglucosamine polysulfate [reference compound]	100	100	–	Infected cell (%) (HTLV-III; [9]): 100%
Dextran sulfate [Dextran sulfate 3,500]	–	–	–	Infected cell (%) (HTLV-III; [4]): 100%; Infected cell (%) (HTLV-III; [5]): 82%; Infected cell (%) (HTLV-III; [9]): 1%
Glucose-polysulfate [reference compound]	100	100	–	Infected cell (%) (HTLV-III; [9]): 100%
inulin [reference compound]	–	–	None	–
Dextran sulfate [Dextran sulfate 8,000]	–	–	–	Infected cell (%) (HTLV-III; [4]): 25%; Infected cell (%) (HTLV-III; [5]): 0%
Dermatan sulfate [reference compound]	100	80	–	–
Hyaluronic acid sulfate	100	70	–	–
dextran sulfate	–	–	particularly strong	–
Hyaluronic acid [reference compound]	100	100	–	–
O=C[C@H](O)[C@@H](O)[C@H](O)[C@H](O)COS(=O)(=O)O [Glucose-6-sulfate, reference compound]	–	–	–	activity at 10 µg/mL (HTLV-III; Human immunodeficiency virus 1, MT4, 144 h, 10 μg/ml, 6th day, control without test substance 100%): 100%; activity at 100 µg/mL (HTLV-III; Human immunodeficiency virus 1, MT4, 144 h, 100 μg/ml, 6th day, control without test substance 100%): 100%; activity at 1000 µg/mL (HTLV-III; Human immunodeficiency virus 1, MT4, 144 h, 1000 μg/ml, 6th day, control without test substance 100%): 100%
Keratan polysulfate	80	40	–	reverse transcriptase inhibitory activity compared with the natural substances [1]: stronger activity
